What is called T/C is the result in the treated group divided by that in the control group, in per cent.

Where “and” joins values, the source holds several entries; their conditions need not be identical. Equal values may be shown once. Read-outs that look alike come from different tables or passages of the source.

Data set [1] concerns Pancreatic Ductal Adenocarcinoma 03. Conditions: footnote, no dose given; cited from earlier work.
Data set [2] has the same test system. Kind of data set: Evaluation against early stage Pancreatic Ductal Adenocarcinoma 03, IP route, C57 females (Table 9). The format is in vivo. The method, then:
The IP route was used for two reasons. […] This is approximately 40% of the dose given IV with the racemic mix (60 mg/kg, see Table 7).

Data set [3] can be described thus: Water solubility noted on drug preparation for injection. In kind it is physicochemical.
Method: (§1) Compounds as their sodium salts were prepared in a 1% sodium bicarbonate solution, H2O or phosphate buffered saline (PBS), with pH adjusted to 7.0 to 7.5 with HCl, and administered intravenously (IV) or orally (PO), at injection volumes of 0.2 mL per injection.
Data set [4] has as its system Mammary Adenocarcinoma 17/ADR. Kind of data set: Evaluation against early stage Mammary Adenocarcinoma 17/ADR, C3H/He females (Table 3). The format is in vivo. Conditions: Cage 2; IV; 7.5 mg/kg/inj days 1, 7; total 15 mg/kg.
Data set [5] has as its system Mammary Adenocarcinoma 16/C. Conditions: Cage 4, IV, qd 1–5, total 240 mg/kg. The text has this: Table 7. […] The animal was then re-implanted with Mam16/C/71.
In data set [6] the test system is Mammary Adenocarcinoma 16/C.
From the text: (§2) Pancreatic ductal adenocarcinoma-03, mammary adenocarcinoma-16/C, mammary adenocarcinoma-17/Adr, and human melanoma LOX were used in the studies. Tumors were maintained in the mouse strain of origin (C57B1/6 for Panc-03 and C3H for the mammary tumors). Balb/c SCID mice (B and T cell deficient) were used for tumor maintenance and chemotherapy trials involving the human melanoma LOX. Tumors were transplanted into the appropriate F1 hybrid (B6D2F1=C57B 1/6 female× DBA/2 male) or the strain of origin for the chemotherapy trials. Individual mouse body weights for each experiment were within 5 grams, and all mice were over 17 grams at the start of therapy. The mice were supplied food and water ad libitum.
(§3) Animals were pooled, implanted subcutaneously with 30 to 60 mg tumor fragments by a 12 gauge trocar on day 0, and again pooled before unselective distribution to the various treatment and control groups. For early stage treatment, chemotherapy was started within 1 to 3 days after tumor implantation while the number of cells was relatively small (10^7 to 10^8 cells). For upstaged or advanced staged trials, the tumors were allowed to grow for five or more days before treatment was started. Tumors were measured with a caliper twice weekly. […] Tumor weights are estimated from two-dimensional measurements:
(§4) Tumor weight (in mg)=(a×b^2)/2, where a and b are the tumor length and width in (mm), respectively.
a) Tumor growth delay (T−C value), where T is the median time (in days) required for the treatment group tumors to reach a predetermined size (e.g., 1,000 mg), and C is the median time (in days) for the control group tumors to reach the same size. Tumor-free survivors were are excluded from these calculations (cures are tabulated separately).
(§5) b) Calculation of tumor cell kill for subcutaneously (SC) growing tumors. […] The conversion of the T−C values to log10 cell kill is possible because the Td of tumors re-growing post treatment (Rx) approximates the Td values of the tumors in untreated control mice.
(§6) It should be noted that an activity rating of +++ to ++++ is needed to effect partial regression (PR) or complete regression (CR) of 100 to 300 mg size masses of most transplanted solid tumors of mice. Thus, an activity rating of + or ++ would not be scored as active by usual clinical criteria. A PR is a reduction in tumor mass to less than 50% of pretreatment size. A CR is a reduction in tumor mass to below palpable size (i.e., reduction to zero detectable mass).
(§7) The T/C value in percent is an indication of anti-tumor effectiveness: A T/C=0% means no tumor growth. A T/C=100% means no anti-tumor activity, i.e., the treated and control tumors grew equally. […] A T/C value<10% is considered to indicate highly significant anti-tumor activity, and is the level used by NCI to justify a clinical trial if toxicity, formulation, and certain other requirements are met (termed DN-2 level activity).
as §1
Data set [7] has as its system Pancreatic Ductal Adenocarcinoma 03. Conditions: for Comments (Active/Inactive) / Comments (activity rating) / Drug Death / Log Cell Kill / Median Tumor Burden in mg on d17 / T-C / T/C % / Time to 1000 mg / Tumor Free on 148: BDF1 males.
From the text: as §2, §3, §4
a) Tumor growth delay (T−C value), where T is the median time (in days) required for the treatment group tumors to reach a predetermined size (e.g., 1,000 mg), and C is the median time (in days) for the control group tumors to reach the same size. Tumor-free survivors were are excluded from these calculations (cures are tabulated separately). This value is an important criterion of anti-tumor effectiveness because it allows the quantification of tumor cell kill.
as §5, §6, §7, §1
Thus, for this test, all compounds initially were to be given IP, in an attempt to identify a suitable alternate route of administration.
Setting [8] is: Cage 2, BID3–5, total 450 mg/kg.
The mark [9] stands for this setting: Cage 3, BID3–7, total 450 mg/kg.
[10] abbreviates: Cage 5, Qd3–7, total 157.5 mg/kg.
Where [11] appears, read: Cage 2, IV, Q2Dx8, total 480 mg/kg.
Setting [12] is: Cage 11, IP, 80 mg/kg/inj days 3, 5, 11, 13, 15, total 400 mg/kg.
The mark [13] stands for this setting: Cage 12, IP, 50 mg/kg/inj Q2d×7 from day 3, total 350 mg/kg.
Setting [14] is: IP, Q2d: 3–15, total dosage 350 mg/kg.
[15] abbreviates: IP, d3, 5, 11, 13, 15, total dosage 400 mg/kg.
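Wherever Comments (Active/Inactive) is given: mice carrying bilateral subcutaneous tumors, with tumor weight estimated from two-dimensional caliper readings taken twice a week.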
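Wherever Median Tumor Burden in mg on d17 is given: mice carrying bilateral subcutaneous tumors, with tumor weight estimated from two-dimensional caliper readings taken twice a week.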
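Wherever Tumor Free on 148 is given: mice carrying bilateral subcutaneous tumors, with tumor weight estimated from two-dimensional caliper readings taken twice a week.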
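Wherever tumor free on day 148 is given: mice carrying bilateral subcutaneous tumors, with tumor weight estimated from two-dimensional caliper readings taken twice a week.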

On to `CC[C@]1(O)C[C@@H]2CN(CCc3c([nH]c4ccccc34)[C@@](C(=O)OC)(c3cc4c(cc3OC)N(C)[C@H]3[C@@](O)(C(=O)OC)[C@H](OC(C)=O)[C@]5(CC)C=CCN6CC[C@]43[C@@H]65)C2)C1` [Vinblastine], for which the “sensitivity of this tumor to standard agents (activity rating)” value (shortened to “sensitivity of this tumor”) in data set [1] is “It is insensitive to Vinblastine”.
Turning to `O=c1[nH]cc(F)c(=O)[nH]1` [Compound 5-FU, 5-FU], the “sensitivity of this tumor” value in data set [1] is given as “It is modestly responsive to 5-FU (+ activity). (0.7–1.2)”.
For the compound `CC(Oc1ccc(Oc2ccc3ccc(Br)cc3n2)cc1)C(=O)NCCS(=O)(=O)[O-].[Na+]` [Compound 14g (R), Sodium (2-(4-(7-bromo-2-quinolinyl)oxy)phenoxy) propionylamino ethanesulfonate], in data set [2] (setting [8]), the “Day of Wt. Loss Nadir” value is 9 days; the “Drug Death (day of death)” value was “one drug death and 1/5”; the “Log Cell Kill” value was determined as 1.52; the “Mean Body Wt. Loss in g/mouse” value is −4.4 g/mouse. Besides, in data set [2] (setting [8]), the “Median Tumor Burden in mg on d14 (range)” value is recorded as 0 mg, the “T-C” value was 10.75 days, the T/C % is given as 0% and the “Time to 1000 mg in days (range)” value was 24.75 days. Besides, in data set [2] (setting [8]), the “Tumor Free on d31” value was 0/5; the “day of body weight recovery” value was at most 17 days; the toxicity observations result was “increased urinary output and a sunken appearance”. In data set [2] (setting [9]), the “Day of Wt. Loss Nadir” value is 9 days, the “Drug Death (day of death)” value was 0/5, the “Log Cell Kill” value came out at 1.72 and the “Mean Body Wt. Loss in g/mouse” value is on record as −1.2 g/mouse. In addition, in data set [2] (setting [9]), the “Median Tumor Burden in mg on d14 (range)” value amounted to 126 mg, the “T-C” value amounted to 12 days, the T/C % was found to be 12.6% and the “Time to 1000 mg in days (range)” value was found to be 26 days. In addition, the “Tumor Free on d31” value in data set [2] (setting [9]) was 0/5. The water solubility entry in data set [3] is “Low water solubility limits”. Besides, in data set [3] (expressed as injectable dose), the solubility limit is on record as 25 mg/kg (0.2 ml/inj).
In the case of `COc1cccc2c1C(=O)c1c(O)c3c(c(O)c1C2=O)C[C@@](O)(C(=O)CO)C[C@@H]3O[C@H]1C[C@H](N)[C@H](O)[C@H](C)O1` [Adriamycin, reference compound], in data set [4], the “% Body Wt Loss at Nadir” value is recorded as −1.4%, the “% T/C mass” value was 90%, the “Activity Rating” value was “inactive” and the “Day of Nadir” value is 7 days. In data set [4], the “Drug Deaths” value is given as 0/5, the “Growth Delay” value is 0 days, the “Log Kill” value was “none” and the “Median Tumor Mass on Day 9 (Range)” value came out at 1086. In addition, the “Tumor Free day-21” value in data set [4] is on record as 0/5. For the same compound, the “sensitivity of this tumor” value in data set [1] is listed as “It is nicely sensitive to Adriamycin (+++ activity). (2.0–2.8)”.
Take `CC(Oc1ccc(Oc2ccc3ccc(Br)cc3n2)cc1)C(=O)O` [Compound 11c (R), 2-{4-{(7-bromo-2-quinolinyl)oxy}phenoxy}propionic acid, reference compound]: in data set [5], the “Day of Wt. Loss Nadir” value is 9 days; the “Drug Death (day of death)” value was “One animal died and 1/5”; the “Log Cell Kill” value is listed as 1.8; the “Mean Body Wt. Loss in g/mouse” value is on record as −6.0 g/mouse. Further, in data set [5], the “Median Tumor Burden in mg on d 9 (range)” value came out at 0 mg, the “Percent Body Weight Loss” value was −29.4%, the “T-C” value turned out to be 7.2 days and the T/C % stood at 0%. In data set [5], the “Time to 1,000 mg in days (range)” value is given as 15.2 days, the “Tumor Free on d 161” value is on record as 0/5, the “day of body weight recovery” value is at most 13 days and the toxicity observations entry is “diarrhea”. In data set [5] (day 6), the “body weight loss day 6” value is on record as −17.5%. Further, in data set [2] (Cage 4, Qd3–7, total 260 mg/kg), the “Comments (activity rating)” value is reported as “LD20”; the “Day of Wt. Loss Nadir” value was 10 days; the “Drug Death (day of death)” value is “One drug death and 1/5”; the “Log Cell Kill” value came out at 1.5. Further, in data set [2] (Cage 4, Qd3–7, total 260 mg/kg), the “Mean Body Wt. Loss in g/mouse” value is given as −3.2 g/mouse, the “Median Tumor Burden in mg on d14 (range)” value worked out at 126 mg, the “Percent Body Weight Loss” value is given as −16.7% and the “T-C” value came out at 10.5 days. Besides, in data set [2] (Cage 4, Qd3–7, total 260 mg/kg), the T/C % is recorded as 12.6%, the “Time to 1000 mg in days (range)” value stood at 24.5 days, the “Tumor Free on d31” value was 0/5 and the “day of full body weight recovery” value is at most 17 days. In addition, in data set [2] (setting [10]), the “Day of Wt. Loss Nadir” value worked out at 9 days, the “Drug Death (day of death)” value is given as 0/5, the “Log Cell Kill” value is listed as 1.58 and the “Mean Body Wt. Loss in g/mouse” value was −0.0 g/mouse. Moreover, in data set [2] (setting [10]), the “Median Tumor Burden in mg on d14 (range)” value came out at 260 mg, the “T-C” value amounted to 11 days, the T/C % was found to be 26% and the “Time to 1000 mg in days (range)” value turned out to be 25 days. Besides, the “Tumor Free on d31” value in data set [2] (setting [10]) was 0/5. Further, the “Preparation: state of the injection preparation” value in data set [3] (white solid + 3% EtOH + 1% POE + 0.25% NaHCO3 + saline, pH = 9 → 7 with 1N HCl) is on record as “Compound 11c (R): white solid + 3% EtOH + 1% POE + 0.25% NaHCO3 + saline → solution (pH = 9 → 7 with 1N HCl); 0.5 ml/mouse/inj, IP”. In addition, in data set [6] (setting [11]), the “Drug Death (day of death)” value is listed as 0/5, the “Log Cell Kill” value is given as 4.8, the “Median Tumor Burden in mg on day 7 (range)” value was 0 mg and the “T-C” value was 16 days. Besides, in data set [6] (setting [11]), the T/C % is listed as 0%; the “Time to 1000 mg in days (range)” value is recorded as 22 days; the “Tumor Free on d28” value was “no cures and 0/5”. In addition, in data set [6] (mouse, in vivo), the “Day of Wt. Loss Nadir” value came out at 14 days and the “Percent Body Weight Loss” value is given as −4.3%. Also, in data set [7] (setting [12]), the Activity Rating entry is recorded as “++++ (Highly active >2.8)”; the T/C is 0%; the log cell kill came out at 3.3; the “tumor free on day 148” value was 1/5 and One mouse remained tumor free. Also, in data set [7] (setting [13]), the Activity Rating entry is given as “++ (1.3–1.9)”, the T/C was determined as 3% and the log kill is 1.4. Moreover, in data set [7] (setting [14]), the “Comments (Active/Inactive)” value is on record as “Active”, the “Comments (activity rating)” value is reported as “(++) (1.3–1.9)”, the “Drug Death” value is reported as 0/5 and the “Log Cell Kill” value is given as 1.4. In data set [7] (setting [14]), the “Median Tumor Burden in mg on d17” value came out at 63 mg, the “T-C” value was determined as 10 days, the T/C % is on record as 3% and the “Time to 1000 mg” value is 25 days. Besides, in data set [7] (setting [14]), the “Tumor Free on 148” value is listed as 0/5. Moreover, in data set [7] (setting [15]), the “Comments (Active/Inactive)” value is reported as “Active”, the “Comments (activity rating)” value is “(++++) (Highly active >2.8)”, the “Drug Death” value is reported as 0/5 and the “Log Cell Kill” value is given as 3.3. Besides, in data set [7] (setting [15]), the “Median Tumor Burden in mg on d17” value worked out at 0 mg, the “T-C” value was 23 days, the T/C % is on record as 0% and the “Time to 1000 mg” value is recorded as 38 days. Moreover, the “Tumor Free on 148” value in data set [7] (setting [15]) is given as 1/5. In addition, in data set [7] (mouse, in vivo), the “Day of Wt. Loss Nadir” value was 9 days and 8 days; the “day of full weight recovery” value is 16 days and 11 days; the “day of weight loss nadir” value is 9 days and 8 days.
With `CC(=O)O[C@H]1C(=O)[C@@]2(C)[C@H]([C@H](OC(=O)c3ccccc3)[C@]3(O)C[C@H](OC(=O)[C@H](O)[C@@H](NC(=O)c4ccccc4)c4ccccc4)C(C)=C1C3(C)C)[C@]1(OC(C)=O)CO[C@@H]1C[C@@H]2O` [Taxol], the “sensitivity of this tumor” value in data set [1] was “This tumor is highly sensitive to Taxol (++++ activity rating). (Highly active >2.8)”.

Values taken from patent US7109341B2, “Therapeutic amides” (Wayne State University, priority 2002, dated 2006).
